From patent publication US20160303156A1 (priority 2014, published 2016)
Where a name gives a salt, the structure may show the parent alone. Marks after values point to notes of the source that are not given here.

Experiments:
[1] = tested on: excretion of phenol red (secretory function of the respiratory tract); experiment: Effect on excretion of phenol red in mice; type: in vivo, Kunming mice; conditions: for Phenol red concentration: oral gavage 2 days, trachea wash 30 min after i.p. phenol red, n = 10
Experimental: Kunming mice, female:male 1:1, weight 30-40 g, available from Guangdong Medical Laboratory Animal Center. […] Hitachi 3010 UV and visible spectrophotometer. […] After 30 min, the mice were sacrificed, and the trachea was detached. A section of the trachea from the thyroid cartilage to a branch of the trachea was excised, and placed in a test tube containing 3 ml of saline, to which 0.1 ml of a 15% sodium bicarbonate solution was then added. After centrifugation, the supernatant was taken and measured for the OD value at 546 nm. The phenol red content was calculated from a phenol red standard curve.

[2] = tested on: citric acid induced cough; experiment: Inhibition on citric acid induced cough in guinea pig; type: in vivo, Hartley guinea pigs
Experimental: 1.1 Test animals: qualified Hartley guinea pigs, weight 250-300 g, female:male 1:1, available from Guangdong Medical Laboratory Animal Center.
1.3 Instrument: YLS-8A cough and asthma inducing instrument (a product available from Equipment Station of Shandong Academy of Medical Sciences).
The guinea pigs in each group were administered by oral gavage at a dosage of 0.5 ml/100 g of body weight, and equal volume of saline was given to the animals in the blank control group. 1 h after administration by oral gavage, the animals received spray of citric acid for 7 min. After the spray was completed, the cough counts were observed and recorded in ten minutes from the start of the spray (the typical cough is loud and clear and often accompanied by a forward rush).

[3] = tested on: ovalbumin induced atopic cough (cough variant asthma); experiment: Capsaicin induced cough in ovalbumin induced atopic cough (cough variant asthma) model; type: in vivo, Hartley guinea pig; conditions: ovalbumin-challenged guinea pigs, 7 days dosing, 50 μmol/L capsaicin 1 hr after last dose, coughs in 10 min, n = 10
Experimental: (§1) 2.2 Modeling: except for the normal control group, the guinea pigs in the remaining groups were challenged by intraperitoneally injecting cyclophosphamide at a dosage of 30 mg/kg at day 1, intraperitoneally injecting 1 mL of a suspension containing 2 mg ovalbumin and 100 mg aluminium hydroxide at day 3, and injecting 1 mL of a suspension containing 0.01 mg ovalbumin and 100 mg aluminium hydroxide after 3 weeks. The guinea pigs in the normal control group were intraperitoneally injected with 1 mL of saline. After 3 weeks, all the animals for modeling were challenged by nebulization of a 1% ovalbumin solution for 90 s, and the animals in the normal control group inhaled saline for 90 s by nebulization.
(§2) The cough of guinea pig were counted as follows. 1 hr after the last dose, the guinea pigs were placed in a Buxco cough recorder, and induced to cough by using 1 mL of 50 μmol/L capsaicin, and the cough counts in 10 min (including the nebulization time) were recorded.

[4] = tested on: acemecholine (MeCh) induced airway hyperresponsiveness; experiment: Airway responsiveness (Penh) under MeCh challenge in ovalbumin cough variant asthma model; type: in vivo, Hartley guinea pig; conditions: Penh % relative to normal saline challenge, n = 10
Experimental: as §1, §2
2.4 Determination of airway responsiveness (AR) in guinea pig: 24 hrs after cough determination, the enhanced pause (Penh) of guinea pig was determined in the Buxco whole body plethysmograph, and the variation in Penh after challenge by nebulization of acemecholine (MeCh) was measured.
The acemecholine (MeCh) concentrations used for challenging were respectively, from low to high, 100 mg/L, 200 mg/L, 400 mg/L, 800 mg/L, and 1600 mg/L. The average Penh upon challenge with each level of MeCh was recorded, and converted into percentages (Penh %) relative to the Penh value upon challenge with normal saline (NS), which was used as an evaluation criterion for AR.

[5] = tested on: inflammatory cells in bronchial alveolar lavage fluid; experiment: Differential leukocyte counts in bronchial alveolar lavage fluid, ovalbumin cough variant asthma model; type: in vivo, Hartley guinea pig; conditions: BALF
Experimental: as §1, §2
2.5 Bronchoalveolar lavage and differential leukocyte counts in bronchial alveolar lavage fluid (BALF): After AR determination, the guinea pigs were anesthetized with 30 mg/kg of pentobarbital sodium. Then, the neck skin was cut, and a median incision was made on the trachea, in which a tracheal cannula was inserted. Bronchoalveolar lavage was performed with 5 mL of saline. This was repeated 3 times, and the bronchial alveolar lavage fluid was collected. All the bronchial alveolar lavage fluid was centrifuged at 4° C. and 1500 rpm for 10 min, and the supernatant was stored at −80° C. for later use.

[6] = Effect of naringin in combination with other drugs; conditions: used in combination with naringin

Compound: Nc1c(Br)cc(Br)cc1CN[C@H]1CC[C@H](O)CC1 [Ambroxol, ambroxol]
- Phenol red concentration [1]: 1.55 ± 0.46 ^ μg/ml

Compound: C[C@@H]1O[C@@H](O[C@H]2[C@H](Oc3cc(O)c4c(c3)O[C@H](c3ccc(O)cc3)CC4=O)O[C@H](CO)[C@@H](O)[C@@H]2O)[C@H](O)[C@H](O)[C@H]1O [Naringin, naringin]
- Cough relieving effect (in words) ([2]; citric acid induced cough): obvious cough relieving effect
- Cough count ([2]; oral gavage, citric acid spray 7 min 1 h after dosing, coughs in ten minutes, n = 8): 22.4 ± 3.7 ^
- Effect on excretion of phenol red / sputum reducing effect (in words) [1]: obviously enhance the excretion of phenol red
- Phenol red concentration [1]: 1.64 ± 0.67 ^ μg/ml
- Cough counts [3]: 12.9 ± 4.3 ^
- Airway responsiveness under challenge with MeCh ([4]; MeCh 100 mg/L): 276 ± 69
- Airway responsiveness under challenge with MeCh ([4]; MeCh 200 mg/L): 783 ± 147
- Airway responsiveness under challenge with MeCh ([4]; MeCh 400 mg/L): 857 ± 108
- Airway responsiveness under challenge with MeCh ([4]; MeCh 800 mg/L): 1636 ± 169
- Airway responsiveness under challenge with MeCh ([4]; MeCh 1600 mg/L): 2749 ± 253
- Reduction of total leukocyte, lymphocyte, neutrophil and eosinophil counts (in words) [5]: significantly reduce
- Lymphocyte counts ([5]; guinea pigs, n = 10): 21.5 ± 3.7** 10^7/L
- Neutrophil counts ([5]; guinea pigs, n = 10): 30.1 ± 6.5** 10^7/L
- Total leukocyte counts ([5]; guinea pigs, n = 10): 135.5 ± 28.6** 10^7/L

Compound: CN1CCCC(n2nc(Cc3ccc(Cl)cc3)c3ccccc3c2=O)CC1 (centres unmarked) [azelastine hydrochloride]
- Synergistic effect in combination with naringin [6]: no synergistic effect

Compound: CN(C)CCC(c1ccc(Cl)cc1)c1ccccn1 (centres unmarked) [chlorpheniramine maleate]
- Synergistic effect in combination with naringin [6]: no synergistic effect

Compound: Clc1ccc2c(c1)CCc1cccnc1C2=C1CCNCC1 [desloratadine]
- Synergistic effect in combination with naringin [6]: no synergistic effect

Compound: NC1=NCC2c3ccccc3Cc3ccccc3N12 (centres unmarked) [epinastine hydrochloride]
- Synergistic effect in combination with naringin [6]: no synergistic effect

Compound: CCOC(=O)N1CCC(=C2c3ccc(Cl)cc3CCc3cccnc32)CC1 [loratadine]
- Synergistic effect in combination with naringin [6]: no synergistic effect

Compound: CN(c1nccc(=O)[nH]1)C1CCN(c2nc3ccccc3n2Cc2ccc(F)cc2)CC1 [mizolastine]
- Synergistic effect in combination with naringin [6]: no synergistic effect

Compound: dimenhydrinate hydrochloride
- Synergistic effect in combination with naringin [6]: no synergistic effect

Compound: theohydramine hydrochloride
- Synergistic effect in combination with naringin [6]: no synergistic effect
